Reference: patent publication US9670184B2, “Amorphous allisartan isoproxil, preparation method therefor, and pharmaceutical composition containing amorphous allisartan isoproxil” (SHENZHEN SALUBRIS PHARMACEUTICALS CO. LTD, priority 2013, dated 2017)

Columns and labels:
Assay type in all cases: physicochemical
[1] = Electrostatic phenomenon of the dried powder (observation); conditions: powder after drying
[2] = Bulk density of powders, measurement in a graduated cylinder (Method I of Bulk Density, Ph. Eur); conditions: powder sieved through 100-mesh screen
Excerpt: (§1) The powders of experiment 1 and 3 were pulverized and then sieved through a 100-mesh screen to obtain powders with particle size similar to the crystal powder. Then the repose angles of the powders were detected respectively by using a fixed-funnel method; and the bulk densities of the powders were detected respectively by using measurement in a graduated cylinder (Method I of Bulk Density disclosed in Ph. Eur), and the results were shown in the table below: […]

[3] = Repose angle of powders by fixed-funnel method; conditions: powder sieved through 100-mesh screen
Excerpt: as §1

| SMILES | Electrostatic phenomenon [1] | Bulk Density [2] | Repose Angle [3] |
| --- | --- | --- | --- |
| CCCCc1nc(Cl)c(C(=O)OCOC(=O)OC(C)C)n1Cc1ccc(-c2ccccc2-c2nnn[nH]2)cc1 [Amorphous allisartan isoproxil obtained from experiment 1] [2-butyl-4-chloro-1-[2′-(1H-tetrazol-5-yl)-1,1′-biphenyl-methyl]-imidazole-5-carboxylic acid, 1-[(isopropoxy)-carbonyloxy]methyl ester] | no obvious electrostatic phenomenon | 0.77 g/mL | 33-36 ° |
| CCCCc1nc(Cl)c(C(=O)OCOC(=O)OC(C)C)n1Cc1ccc(-c2ccccc2-c2nnn[nH]2)cc1 [Amorphous allisartan isoproxil obtained from experiment 3] [2-butyl-4-chloro-1-[2′-(1H-tetrazol-5-yl)-1,1′-biphenyl-methyl]-imidazole-5-carboxylic acid, 1-[(isopropoxy)-carbonyloxy]methyl ester] | no obvious electrostatic phenomenon | 0.79 g/mL | 33-36 ° |
| CCCCc1nc(Cl)c(C(=O)OCOC(=O)OC(C)C)n1Cc1ccc(-c2ccccc2-c2nnn[nH]2)cc1 [Experiment 2, 2-butyl-4-chloro-1-[2′-(1H-tetrazol-5-yl)-1,1′-biphenyl-methyl]-imidazole-5-carboxylic acid, 1-[(isopropoxy)-carbonyloxy]methyl ester] | no obvious electrostatic phenomenon |  |  |
| CCCCc1nc(Cl)c(C(=O)OCOC(=O)OC(C)C)n1Cc1ccc(-c2ccccc2-c2nnn[nH]2)cc1 [Patent Crystal, 2-butyl-4-chloro-1-[2′-(1H-tetrazol-5-yl)-1,1′-biphenyl-methyl]-imidazole-5-carboxylic acid, 1-[(isopropoxy)-carbonyloxy]methyl ester, reference compound] | obvious electrostatic phenomenon | 0.51 g/mL | 48-53 ° |
